Data taken from patent US10905704B2, “Agents and methods using thereof for the prevention and treatment of stem cell muscle disorders” (ECOLE POLYTECHNIQUE FEDERALE DE LAUSANNE (EPFL), priority 2015, dated 2021).

Key:
MuSCs [1] = assay: MuSC numbers in NR-treated Mdx mice (FACS, PAX7 immunostaining); assay type: in vivo
Procedure: Animals. Young (1 month old) and aged (20-24 months old) C57BL/6JRj mice, purchased from Janvier Labs, and five weeks old male C57BL/10SnJ mice or C57BL/10ScSn-Dmdmdx/J, purchased from The Jackson Laboratory, were fed with pellets containing vehicle or NR (400 mg/kg/day) for 6-8 weeks. The pellets were prepared by mixing powdered chow diet (D12450B, Research Diets Inc.) with water or with NR dissolved in water. Pellets were dried under a laminar flow hood for 48 hours. All mice were housed in micro-isolator cages in a room illuminated from 7:00 am -7:00 pm with ad libitum access to diet and water.
FACS based muscle stem cell isolation. Gastrocnemius, soleus, quadriceps, and tibialis anterior muscles from both limbs were excised and transferred into PBS on ice. All muscles were trimmed, minced and digested with 0.1 mg/ml of type II collagenase (Sigma) in PBS for 15 min at 37° C. Samples were then centrifuged at 750 g for 5 min and further digested in 1 mg/ml of collagenase/dispase (Roche) for 30 mins at 37° C. Muscle slurries were sequentially filtered through 100, 70 and 40 μm cell strainers. […] Stained cells were analysed and sorted using the FACSAria II instrument (BD Biosciences). […]

[2] = tested on: muscle stem cells (MuSCs); assay: MuSC numbers in muscle of NR-fed young and aged mice (FACS, PAX7 staining); assay type: in vivo, C57BL/6J mice; conditions: for MuSC numbers (FACS): NR 400 mg/kg/day in diet for 6 weeks, FIG. 3A-C
Procedure: Animals. Young (1 month old) and aged (20-24 months old) C57BL/6JRj mice, purchased from Janvier Labs, and five weeks old male C57BL/10SnJ mice or C57BL/10ScSn-Dmdmdx/J, purchased from The Jackson Laboratory, were fed with pellets containing vehicle or NR (400 mg/kg/day) for 6-8 weeks. The pellets were prepared by mixing powdered chow diet (D12450B, Research Diets Inc.) with water or with NR dissolved in water. Pellets were dried under a laminar flow hood for 48 hours. All mice were housed in micro-isolator cages in a room illuminated from 7:00 am -7:00 pm with ad libitum access to diet and water. FACS based muscle stem cell isolation. Gastrocnemius, soleus, quadriceps, and tibialis anterior muscles from both limbs were excised and transferred into PBS on ice. All muscles were trimmed, minced and digested with 0.1 mg/ml of type II collagenase (Sigma) in PBS for 15 min at 37° C. Samples were then centrifuged at 750 g for 5 min and further digested in 1 mg/ml of collagenase/dispase (Roche) for 30 mins at 37° C. Muscle slurries were sequentially filtered through 100, 70 and 40 μm cell strainers. The isolated cells were then washed in washing buffer (PBS+2.5% FBS) then resuspended in 200 μl of washing buffer and immediately stained with antibodies, including the MuSC markers CD31 (1:800, eBioscience, eFluor450 conjugated); CD34 (1:200, eBioscience, eFluor660 conjugated); CD45 (1:200, eBioscience, eFluor450 conjugated); CD11b (1:400, eBioscience, eFluor450 conjugated); Sca-1 (1:1000, eBioscience, PE-Cy7 conjugated); and α7 integrin (1:300, MBL) for 30 min at 4° C. Secondary staining was performed with a mixture of goat anti-mouse antibody (1:800, Life technologies, Alexa Fluor 488 conjugated) and propidium Iodide (PI, Sigma) for 15 min at 4° C. in the dark. Stained cells were analysed and sorted using the FACSAria II instrument (BD Biosciences). Debris and dead cells were excluded by forward scatter, side scatter and PI gating. Cells were sorted either directly on slides for immunostaining and into TriPure (Roche) reagent for RNA extraction. Histology. […]

MuSCs [3] = assay: Senescence marker staining of MuSCs from Mdx mice (β-galactosidase, γH2AX, cleaved caspase-3); assay type: cell-based; conditions: for senescence by β-galactosidase staining: FIG. 6J
Procedure: β-galactosidase assay. MuSCs were sorted directly and cultured primary MuSCs were grown on 8 chamber slides (Thermo Scientific). Senescence-associated β-galactosidase activity was detected using the senescence β-galactosidase staining kit (Cell signaling), according to manufacturer's instructions. Cardiotoxin-induced muscle damage and Histology as described in Example 2. The following antibodies were used: anti-eMHC (Developmental Studies Hybridoma Bank, DSHB, University of Iowa), anti-Pax7 (DSHB, University of Iowa), anti-γH2AX […] (Millipore) and anti-activated-caspase3 (Cell signaling).

[4] = MuSCs of NR-treated Mdx mice, cultured three generations, FIG. 6K

SMILES: NC(=O)c1ccc[n+]([C@@H]2O[C@H](CO)[C@@H](O)[C@H]2O)c1 [NR, nicotinamide riboside]
- increase of MuSC numbers in vivo (MuSCs [1]; Mdx mice, NR 400 mg/kg/day in diet, FACS, FIG. 6B-D): ~1.8 fold
- MuSC numbers by PAX7 immunostaining (MuSCs [1]; NR-treated Mdx mice, FIG. 6E): confirmed by PAX7 immunostaining
- MuSC numbers (FACS) ([2]; aged mice): attenuated the loss of MuSC numbers during aging
- MuSC numbers by PAX7 staining of TA muscle ([2]; aged mice, NR diet, FIG. 3D): increase in aged MuSC numbers was confirmed
- MuSC numbers (FACS) ([2]; young mice): evoking gains in younger mice
- senescence by β-galactosidase staining (MuSCs [3]; MuSCs from Mdx mice additionally treated with NR in vitro (6 hours)): further reduction in senescence
- senescence by β-galactosidase staining (MuSCs [3]; MuSCs isolated from NR-treated Mdx mice): less prone to senescence
- cleaved caspase-3 immunostaining (MuSCs [3]; [4]): attenuation
- γH2AX immunostaining (MuSCs [3]; [4]): attenuation
